In patent US20060069132A1, “Azolecarboxamide herbicides” (priority 2004, published 2006):

How the values were obtained:
large crabgrass = assay: Test A pre-/postemergence herbicide test; format: in vivo, Digitaria sanguinalis
Procedure, shortened: (§1)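 Both application timings were run together: directed soil spray over freshly planted seeds in sandy loam, and runoff spray onto 2–10 cm seedlings. Evaluation after ~10 days in greenhouse used a 0–100 visual scale versus untreated controls.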

giant foxtail [1] = assay: Test A pre-/postemergence herbicide test; format: in vivo, Setaria faberi
Procedure, shortened: as §1

redroot pigweed = assay: Test A pre-/postemergence herbicide test; format: in vivo, Amaranthus retroflexus
Procedure, shortened: as §1

Surinam grass = assay: Test C pre-/postemergence herbicide test; format: in vivo, Urochloa decumbens
Procedure, shortened: (§2)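 Emerged plants at the 1- to 4-leaf stage (2–18 cm), or freshly planted seeds, received test chemicals in a non-phytotoxic solvent mixture with surfactant. Response was visually scored against controls after 12 to 14 days in the greenhouse, on a 0 (no effect) to 100 (complete control) scale.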

giant foxtail [2] = assay: Test C pre-/postemergence herbicide test; format: in vivo, Setaria faberi
Procedure, shortened: as §2

johnsongrass = assay: Test C pre-/postemergence herbicide test; format: in vivo, Sorghum halepense
Procedure, shortened: as §2

kochia = assay: Test C pre-/postemergence herbicide test; format: in vivo, Kochia scoparia
Procedure, shortened: as §2

yellow nutsedge = assay: Test C pre-/postemergence herbicide test; format: in vivo, Cyperus esculentus
Procedure, shortened: as §2

rice = assay: Test C flooded paddy test; format: in vivo, Oryza sativa
Procedure, shortened: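 Postemergence sprays applied to plants 2 to 18 cm tall (1- to 4-leaf stage); paddy species grown to 2-leaf stage under flooding. After 12 to 14 days in greenhouse, visual rating versus untreated controls on 0–100 scale (0 no effect, 100 complete control).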

[3] = Postemergence, 500 g ai/ha, 0 to 100 scale, 0 no effect, 100 complete control
[4] = Postemergence, 2000 g ai/ha, 0 to 100 scale, 0 no effect, 100 complete control
[5] = Preemergence, 2000 g ai/ha, visual rating, 0 to 100 scale (0 no effect, 100 complete control)
[6] = preemergence, 500 g ai/ha, visual injury, 0 to 100 scale (0 no effect, 100 complete control)
[7] = 62 g ai/ha, preemergence, scale 0 to 100
[8] = 125 g ai/ha, scale 0 (no effect) to 100 (complete control), visual, 12 to 14 days, preemergence
[9] = 250 g ai/ha, scale 0-100, preemergence
[10] = Preemergence, 500 g ai/ha, scale 0 to 100, 0 no effect, 100 complete control
[11] = 500 g ai/ha, scale 0 to 100 (0 no effect, 100 complete control), visual, 12 to 14 days, preemergence
[12] = 125 g ai/ha, scale 0 to 100 (0 no effect, 100 complete control)
[13] = 250 g ai/ha, scale of 0 to 100, 0 is no effect, 100 is complete control
[14] = 500 g ai/ha, visual rating after 12 to 14 days, scale 0 to 100 (0 no effect, 100 complete control)

In the case of `CC(=NO)c1cccc(NC(=O)c2sc(C(C)(C)C)nc2C)c1` [Compound 195], the “Crabgrass, Large plant response rating” value (large crabgrass; [3]) is reported as 10, the “Plant response rating, Crabgrass, Large” value (large crabgrass; [4]) is reported as 25 and the “Crabgrass, Large plant response rating” value (large crabgrass; [5]) is reported as 95. For the same compound, the “Crabgrass, Large plant response rating” value (large crabgrass; [6]) was 75, the “Foxtail, Giant plant response rating” value (giant foxtail [1]; [3]) was 5 and the “Plant response rating, Foxtail, Giant” value (giant foxtail [1]; [4]) was 0. For the same compound, the “Foxtail, Giant plant response rating” value (giant foxtail [1]; [5]) was 45, the “Foxtail, Giant plant response rating” value (giant foxtail [1]; [6]) was 30 and the “Pigweed plant response rating” value (redroot pigweed; [3]) was 5. The “Plant response rating, Pigweed” value (redroot pigweed; [4]) was 25, the “Pigweed plant response rating” value (redroot pigweed; [5]) was 0 and the “Pigweed plant response rating” value (redroot pigweed; [6]) was 0. For the same compound, the “Plant response rating, Surinam Grass” value (Surinam grass; [7]) was 0, the “Plant response rating, Surinam Grass” value (Surinam grass; [8]) was 0 and the “Plant response rating, Surinam Grass” value (Surinam grass; [9]) was 85. For the same compound, the “Surinam Grass plant response rating” value (Surinam grass; [10]) was 85, the “Plant response rating, Foxtail, Giant” value (giant foxtail [2]; [7]) was 0 and the “Plant response rating, Foxtail, Giant” value (giant foxtail [2]; [8]) was 0. The “Plant response rating, Foxtail, Giant” value (giant foxtail [2]; [9]) was 0, the “Foxtail, Giant plant response rating” value (giant foxtail [2]; [10]) was 20 and the “Plant response rating, Johnsongrass” value (johnsongrass; [7]) was 0. The “Plant response rating, Johnsongrass” value (johnsongrass; [8]) was 0, the “Plant response rating, Johnsongrass” value (johnsongrass; [9]) was 0 and the “Johnsongrass plant response rating” value (johnsongrass; [10]) was 0. The “Plant response rating, Kochia” value (kochia; [7]) was 0, the “Plant response rating, Kochia” value (kochia; [8]) was 0 and the “Plant response rating, Kochia” value (kochia; [9]) was 10. For the same compound, the “Kochia plant response rating” value (kochia; [10]) was 85, the “Plant response rating, Nutsedge, Yellow” value (yellow nutsedge; [7]) was 0 and the “Plant response rating, Nutsedge, Yellow” value (yellow nutsedge; [8]) was 0. The “Plant response rating, Nutsedge, Yellow” value (yellow nutsedge; [9]) was 0 and the “Nutsedge, Yellow plant response rating” value (yellow nutsedge; [10]) was 70.

With `CCn1nc2c(c1C(=O)Nc1cc(C(=O)N(C)C)ccc1F)CCC2(C)C` [Compound 352, N-[5-[(dimethylamino)carbonyl]-2-fluorophenyl]-2-ethyl-2,4,5,6-tetrahydro-6,6-dimethyl-3-cyclopentapyrazolecarboxamide] the “Plant response rating (0 = no effect, 100 = complete control), Surinam Grass” value (Surinam grass; 125 g ai/ha, preemergence) was 50, the pest or weed control at 62 g/ha (Surinam grass; Urochloa decumbens, pre-emergence, 312 h, 62 g ai/ha, preemergence, scale 0 to 100, read-out: Plant response rating, Surinam Grass) was 10% and the pest or weed control at 250 g/ha (Surinam grass; Urochloa decumbens, pre-emergence, 312 h, 250 g ai/ha, scale 0-100, read-out: Plant response rating, Surinam Grass) was 100%. The pest or weed control at 500 g/ha (Surinam grass; Urochloa decumbens, pre-emergence, 312 h, 500 g ai/ha, scale 0 to 100 (0 no effect, 100 complete control), visual, 12 to 14 days, read-out: Plant response rating, Surinam Grass) was 100%, the “Plant response rating (0 = no effect, 100 = complete control), Foxtail, Giant” value (giant foxtail [2]; 125 g ai/ha, preemergence) was 60 and the pest or weed control at 62 g/ha (giant foxtail [2]; Setaria faberi, pre-emergence, 312 h, 62 g ai/ha, preemergence, scale 0 to 100, read-out: Plant response rating, Foxtail, Giant) was 5%. The pest or weed control at 250 g/ha (giant foxtail [2]; Setaria faberi, pre-emergence, 312 h, 250 g ai/ha, scale 0-100, read-out: Plant response rating, Foxtail, Giant) was 100%, the pest or weed control at 500 g/ha (giant foxtail [2]; Setaria faberi, pre-emergence, 312 h, 500 g ai/ha, scale 0 to 100 (0 no effect, 100 complete control), visual, 12 to 14 days, read-out: Plant response rating, Foxtail, Giant) was 100% and the “Plant response rating (0 = no effect, 100 = complete control), Johnsongrass” value (johnsongrass; 125 g ai/ha, preemergence) was 90. For the same compound, the pest or weed control at 62 g/ha (johnsongrass; Sorghum halepense, pre-emergence, 62 g ai/ha, preemergence, scale 0 to 100, read-out: Plant response rating, Johnsongrass) was 50%, the pest or weed control at 250 g/ha (johnsongrass; Sorghum halepense, pre-emergence, 250 g ai/ha, scale 0-100, read-out: Plant response rating, Johnsongrass) was 90% and the pest or weed control at 500 g/ha (johnsongrass; Sorghum halepense, pre-emergence, 500 g ai/ha, scale 0 to 100 (0 no effect, 100 complete control), visual, 12 to 14 days, read-out: Plant response rating, Johnsongrass) was 100%. For the same compound, the “Plant response rating (0 = no effect, 100 = complete control), Kochia” value (kochia; 125 g ai/ha, preemergence) was 85, the pest or weed control at 62 g/ha (kochia; Bassia scoparia, pre-emergence, 62 g ai/ha, preemergence, scale 0 to 100, read-out: Plant response rating, Kochia) was 80% and the pest or weed control at 250 g/ha (kochia; Bassia scoparia, pre-emergence, 250 g ai/ha, scale 0-100, read-out: Plant response rating, Kochia) was 100%. For the same compound, the pest or weed control at 500 g/ha (kochia; Bassia scoparia, pre-emergence, 500 g ai/ha, scale 0 to 100 (0 no effect, 100 complete control), visual, 12 to 14 days, read-out: Plant response rating, Kochia) was 100%, the “Plant response rating (0 = no effect, 100 = complete control), Nutsedge, Yellow” value (yellow nutsedge; 125 g ai/ha, preemergence) was 0 and the pest or weed control at 62 g/ha (yellow nutsedge; Cyperus, pre-emergence, 62 g ai/ha, preemergence, scale 0 to 100, read-out: Plant response rating, Nutsedge, Yellow) was 0%. For the same compound, the pest or weed control at 250 g/ha (yellow nutsedge; Cyperus, pre-emergence, 250 g ai/ha, scale 0-100, read-out: Plant response rating, Nutsedge, Yellow) was 10%, the pest or weed control at 500 g/ha (yellow nutsedge; Cyperus, pre-emergence, 500 g ai/ha, scale 0 to 100 (0 no effect, 100 complete control), visual, 12 to 14 days, read-out: Plant response rating, Nutsedge, Yellow) was 50% and the plant injury at 62 g/ha (rice; Oryza sativa, 62 g ai/ha, scale 0 to 100, read-out: Rice plant response rating) was 20%. For the same compound, the plant injury at 125 g/ha (rice; Oryza sativa, 125 g ai/ha, scale 0 to 100 (0 no effect, 100 complete control), read-out: Rice plant response rating) was 45%, the plant injury at 250 g/ha (rice; Oryza sativa, 250 g ai/ha, scale of 0 to 100, 0 is no effect, 100 is complete control, read-out: Rice plant response rating) was 60% and the plant injury at 500 g/ha (rice; Oryza sativa, 500 g ai/ha, visual rating after 12 to 14 days, scale 0 to 100 (0 no effect, 100 complete control), read-out: Plant response rating, Rice) was 70%.

`CCc1nn(C(C)(C)C)nc1C(=O)Nc1cccc(C(=S)N(C)C)c1` [Compound 395] was tested, and the “Plant response rating, Surinam Grass” value (Surinam grass; [7]) was 95, the “Plant response rating (0 = no effect, 100 = complete control), Surinam Grass” value (Surinam grass; 125 g ai/ha, preemergence) was 100 and the “Plant response rating, Surinam Grass” value (Surinam grass; [9]) was 100. The “Plant response rating, Surinam Grass” value (Surinam grass; [11]) was 100, the “Plant response rating, Foxtail, Giant” value (giant foxtail [2]; [7]) was 95 and the “Plant response rating (0 = no effect, 100 = complete control), Foxtail, Giant” value (giant foxtail [2]; 125 g ai/ha, preemergence) was 100. For the same compound, the “Plant response rating, Foxtail, Giant” value (giant foxtail [2]; [9]) was 100, the “Plant response rating, Foxtail, Giant” value (giant foxtail [2]; [11]) was 100 and the “Plant response rating, Johnsongrass” value (johnsongrass; [7]) was 95. The “Plant response rating (0 = no effect, 100 = complete control), Johnsongrass” value (johnsongrass; 125 g ai/ha, preemergence) was 100, the “Plant response rating, Johnsongrass” value (johnsongrass; [9]) was 100 and the “Plant response rating, Johnsongrass” value (johnsongrass; [11]) was 100. The “Plant response rating, Kochia” value (kochia; [7]) was 100, the “Plant response rating (0 = no effect, 100 = complete control), Kochia” value (kochia; 125 g ai/ha, preemergence) was 100 and the “Plant response rating, Kochia” value (kochia; [9]) was 100. For the same compound, the “Plant response rating, Kochia” value (kochia; [11]) was 100, the “Plant response rating, Nutsedge, Yellow” value (yellow nutsedge; [7]) was 15 and the “Plant response rating (0 = no effect, 100 = complete control), Nutsedge, Yellow” value (yellow nutsedge; 125 g ai/ha, preemergence) was 55. The “Plant response rating, Nutsedge, Yellow” value (yellow nutsedge; [9]) was 80, the “Plant response rating, Nutsedge, Yellow” value (yellow nutsedge; [11]) was 90 and the “Rice plant response rating” value (rice; 62 g ai/ha, scale 0 to 100) was 70. The “Rice plant response rating” value (rice; [12]) was 70, the “Rice plant response rating” value (rice; [13]) was 70 and the “Plant response rating, Rice” value (rice; [14]) was 75.

`CCc1nn(C(C)(C)C)nc1C(=S)Nc1cccc(C(=S)N(C)C)c1` [Compound 396] was tested, and the “Plant response rating, Surinam Grass” value (Surinam grass; [7]) was 65, the “Plant response rating (0 = no effect, 100 = complete control), Surinam Grass” value (Surinam grass; 125 g ai/ha, preemergence) was 95 and the “Plant response rating, Surinam Grass” value (Surinam grass; [9]) was 100. The “Plant response rating, Surinam Grass” value (Surinam grass; [11]) was 100, the “Plant response rating, Foxtail, Giant” value (giant foxtail [2]; [7]) was 95 and the “Plant response rating (0 = no effect, 100 = complete control), Foxtail, Giant” value (giant foxtail [2]; 125 g ai/ha, preemergence) was 100. The “Plant response rating, Foxtail, Giant” value (giant foxtail [2]; [9]) was 100, the “Plant response rating, Foxtail, Giant” value (giant foxtail [2]; [11]) was 100 and the “Plant response rating, Johnsongrass” value (johnsongrass; [7]) was 95. For the same compound, the “Plant response rating (0 = no effect, 100 = complete control), Johnsongrass” value (johnsongrass; 125 g ai/ha, preemergence) was 100, the “Plant response rating, Johnsongrass” value (johnsongrass; [9]) was 100 and the “Plant response rating, Johnsongrass” value (johnsongrass; [11]) was 100. The “Plant response rating, Kochia” value (kochia; [7]) was 0, the “Plant response rating (0 = no effect, 100 = complete control), Kochia” value (kochia; 125 g ai/ha, preemergence) was 45 and the “Plant response rating, Kochia” value (kochia; [9]) was 100. For the same compound, the “Plant response rating, Kochia” value (kochia; [11]) was 100, the “Plant response rating, Nutsedge, Yellow” value (yellow nutsedge; [7]) was 0 and the “Plant response rating (0 = no effect, 100 = complete control), Nutsedge, Yellow” value (yellow nutsedge; 125 g ai/ha, preemergence) was 25. For the same compound, the “Plant response rating, Nutsedge, Yellow” value (yellow nutsedge; [9]) was 45, the “Plant response rating, Nutsedge, Yellow” value (yellow nutsedge; [11]) was 80 and the “Rice plant response rating” value (rice; 62 g ai/ha, scale 0 to 100) was 60. For the same compound, the “Rice plant response rating” value (rice; [12]) was 70, the “Rice plant response rating” value (rice; [13]) was 75 and the “Plant response rating, Rice” value (rice; [14]) was 80.
